From patent US11932658B2 (BRISTOL-MYERS SQUIBB COMPANY, priority 2016, dated 2024)
pIC50: −log10 of the molar value.

molecular target: T1, PAR4 (Homo sapiens, UniProt Q96RI0); experiment: PAR4 FLIPR assay (antagonism of agonist peptide-induced calcium mobilization); assay type: cell-based
T1 construct: expressed in transfected cells; host or cells: HEK293 PAR4 Clone 1.2A (BMS Arctic ID 383940)
T1 sequence (Q96RI0 18-385): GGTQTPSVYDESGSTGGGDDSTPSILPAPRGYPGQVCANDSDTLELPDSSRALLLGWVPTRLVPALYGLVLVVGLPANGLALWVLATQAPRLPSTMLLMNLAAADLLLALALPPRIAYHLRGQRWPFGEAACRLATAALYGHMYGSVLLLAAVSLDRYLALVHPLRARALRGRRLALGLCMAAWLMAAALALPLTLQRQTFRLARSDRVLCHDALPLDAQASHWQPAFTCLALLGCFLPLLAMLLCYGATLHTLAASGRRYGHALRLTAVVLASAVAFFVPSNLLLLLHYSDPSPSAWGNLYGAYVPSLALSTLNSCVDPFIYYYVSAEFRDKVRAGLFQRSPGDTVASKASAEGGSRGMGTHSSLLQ
Summary of the method: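 Antagonism was taken as block of calcium mobilization evoked by the agonist peptide H-Ala-Phe(4-F)-Pro-Gly-Trp-Leu-Val-Lys-Asn-[…]-NH2, added after 30 min room-temperature compound preincubation in dye-loaded PAR4-transfected HEK293 cells (endogenous PAR1). Fluorescence was read on FDSS, with compound addition alone used as the agonist counter-screen; values come from 11-point concentration-response curves.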

Compound | pIC50
COc1cnc2c(-c3nc4ccc5c(c4s3)OC[C@H](COC(=O)Nc3ccc(Br)nc3)O5)cc(C)cc2n1 [Example 109, (R)-(2-(2-methoxy-7-methylquinoxalin-5-yl)-7,8-dihydro-[1,4]dioxino[2′,3′:3,4]benzo[1,2-d]thiazol-7-yl)methyl (6-bromopyridin-3-yl)carbamate] | 8.59
COc1cnc2c(-c3nc4ccc5c(c4s3)OC[C@H](COC(=O)Nc3ccc(F)nc3)O5)cc(C)cc2n1 [Example 112, (R)-(2-(2-methoxy-7-methylquinoxalin-5-yl)-7,8-dihydro-[1,4]dioxino[2′,3′:3,4]benzo[1,2-d]thiazol-7-yl)methyl (6-fluoropyridin-3-yl)carbamate] | 8.15
COc1cnc2c(-c3nc4c(C)cc5c(c4s3)OCC(COC(=O)Nc3ccc(N(C)C)nc3)O5)cc(C)cc2n1 (stereo not drawn) [Example 116, (2-(2-methoxy-7-methylquinoxalin-5-yl)-4-methyl-7,8-dihydro-[1,4]dioxino[2′,3′:3,4]benzo[1,2-d]thiazol-7-yl)methyl (6-(dimethylamino)pyridin-3-yl)carbamate] | 8.47
COc1cnc2c(-c3nc4c(C)cc5c(c4s3)OCC(COC(=O)Nc3ccnc(F)c3)O5)cc(C)cc2n1 (stereo not drawn) [Example 118, (2-(2-methoxy-7-methylquinoxalin-5-yl)-4-methyl-7,8-dihydro-[1,4]dioxino[2′,3′:3,4]benzo[1,2-d]thiazol-7-yl)methyl (2-fluoropyridin-4-yl)carbamate] | 7.80
COc1cnc2c(-c3nc4c(C)cc5c(c4s3)OCC(COC(=O)Nc3ccc(Oc4ccccc4)nc3)O5)cc(C)cc2n1 (stereo not drawn) [Example 121, (2-(2-methoxy-7-methylquinoxalin-5-yl)-4-methyl-7,8-dihydro-[1,4]dioxino [2′,3′:3,4]benzo[1,2-d]thiazol-7-yl)methyl (6-phenoxypyridin-3-yl)carbamate] | 8.09
COc1cnc2c(-c3nc4c(C)cc5c(c4s3)OCC(COC(=O)Nc3cnc(F)c(C)c3)O5)cc(C)cc2n1 (stereo not drawn) [Example 122, (2-(2-methoxy-7-methylquinoxalin-5-yl)-4-methyl-7,8-dihydro-[1,4]dioxino[2′,3′:3,4]benzo [1,2-d]thiazol-7-yl)methyl (6-fluoro-5-methylpyridin-3-yl)carbamate] | 8.60
COc1cnc2c(-c3nc4c(C)cc5c(c4s3)OCC(COC(=O)Nc3ccc(O)nc3)O5)cc(C)cc2n1 (stereo not drawn) [Example 123, (2-(2-methoxy-7-methylquinoxalin-5-yl)-4-methyl-7,8-dihydro-[1,4]dioxino[2′,3′:3,4]benzo [1,2-d]thiazol-7-yl)methyl (6-hydroxypyridin-3-yl)carbamate] | 7.74
COc1cnc2c(-c3nc4c(C)cc5c(c4s3)OCC(COC(=O)Nc3cncc(C)c3)O5)cc(C)cc2n1 (stereo not drawn) [Example 124, (2-(2-methoxy-7-methylquinoxalin-5-yl)-4-methyl-7,8-dihydro-[1,4]dioxino[2′,3′:3,4]benzo[1,2-d]thiazol-7-yl)methyl (5-methylpyridin-3-yl)carbamate] | 8.49
COc1cnc2c(-c3nc4c(C)cc5c(c4s3)OCC(COC(=O)Nc3ccc(-c4ccccc4)nc3)O5)cc(C)cc2n1 (stereo not drawn) [Example 125, (2-(2-methoxy-7-methylquinoxalin-5-yl)-4-methyl-7,8-dihydro-[1,4]dioxino[2′,3′:3,4]benzo[1,2-d]thiazol-7-yl)methyl (6-phenylpyridin-3-yl)carbamate] | 7.46
COc1cnc2c(-c3nc4c(C)cc5c(c4s3)OCC(COC(=O)Nc3cncc(-c4ccccc4)c3)O5)cc(C)cc2n1 (stereo not drawn) [Example 126, (2-(2-methoxy-7-methylquinoxalin-5-yl)-4-methyl-7,8-dihydro-[1,4]dioxino[2′,3′:3,4]benzo[1,2-d]thiazol-7-yl)methyl (5-phenylpyridin-3-yl)carbamate] | 7.17
COc1cnc2c(-c3nc4c(C)cc5c(c4s3)OCC(COC(=O)Nc3ccc(-c4cccs4)nc3)O5)cc(C)cc2n1 (stereo not drawn) [Example 127, (2-(2-methoxy-7-methylquinoxalin-5-yl)-4-methyl-7,8-dihydro-[1,4]dioxino[2′,3′:3,4]benzo[1,2-d]thiazol-7-yl)methyl (6-(thiophen-2-yl)pyridin-3-yl) carbamate] | 6.89
COc1cnc2c(-c3nc4c(C)cc5c(c4s3)OCC(COC(=O)Nc3ccc(OCCN(C)C)nc3)O5)cc(C)cc2n1 (stereo not drawn) [Example 128, (2-(2-methoxy-7-methylquinoxalin-5-yl)-4-methyl-7,8-dihydro-[1,4]dioxino[2′,3′:3,4]benzo[1,2-d]thiazol-7-yl)methyl (6-(2-(dimethylamino)ethoxy)pyridin-3-yl)carbamate] | 8.40

These reach a higher pIC50. Values come first.

pIC50 | Compound
8.64 | COc1cnc2c(-c3nc4ccc5c(c4s3)OC[C@H](COC(=O)Nc3ccc([C@H](O)CO)nc3)O5)cc(C)cc2n1 [Example 111, ((R)-2-(2-methoxy-7-methylquinoxalin-5-yl)-7,8-dihydro-[1,4]dioxino[2′,3′:3,4]benzo [1,2-d]thiazol-7-yl)methyl (6-((S)-1,2-dihydroxyethyl)pyridin-3-yl)carbamate]
8.68 | COc1cnc2c(-c3nc4c(C)cc5c(c4s3)OCC(COC(=O)Nc3cnc(C)c(C)c3)O5)cc(C)cc2n1 (stereo not drawn) [Example 119, (2-(2-methoxy-7-methylquinoxalin-5-yl)-4-methyl-7,8-dihydro-[1,4]dioxino[2′,3′:3,4]benzo[1,2-d]thiazol-7-yl)methyl (5,6-dimethylpyridin-3-yl)carbamate]
8.70 | COc1cnc2c(-c3nc4ccc5c(c4s3)OC[C@H](COC(=O)Nc3ccc4[nH]c(=O)oc4c3)O5)cc(C)cc2n1 [Example 106, (R)-(2-(2-methoxy-7-methylquinoxalin-5-yl)-7,8-dihydro-[1,4]dioxino[2′,3′:3,4]benzo [1,2-d]thiazol-7-yl)methyl (2-oxo-2,3-dihydrobenzo[d]oxazol-6-yl)carbamate]
8.72 | COc1cnc2c(-c3nc4ccc5c(c4s3)OC[C@H](COC(=O)Nc3cncc(C#N)c3)O5)cc(C)cc2n1 [Example 113, (R)-(2-(2-methoxy-7-methylquinoxalin-5-yl)-7,8-dihydro-[1,4]dioxino[2′,3′:3,4]benzo[1,2-d]thiazol-7-yl)methyl (5-cyanopyridin-3-yl)carbamate]
8.74 | COc1cnc2c(-c3nc4ccc5c(c4s3)OC[C@H](COC(=O)Nc3cccnc3)O5)cc(C)cc2n1 [Example 108, (R)-(2-(2-methoxy-7-methylquinoxalin-5-yl)-7,8-dihydro-[1,4]dioxino[2′,3′:3,4]benzo[1,2-d]thiazol-7-yl)methyl pyridin-3-ylcarbamate]
8.77 | COc1cnc2c(-c3nc4ccc5c(c4s3)OC[C@H](COC(=O)Nc3cnc4[nH]ccc4c3)O5)cc(C)cc2n1 [Example 107, (R)-(2-(2-methoxy-7-methylquinoxalin-5-yl)-7,8-dihydro-[1,4]dioxino[2′,3′:3,4]benzo [1,2-d]thiazol-7-yl)methyl 1H-pyrrolo[2,3-b]pyridin-5-ylcarbamate]
8.80 | C=Cc1ccc(NC(=O)OC[C@H]2COc3c(ccc4nc(-c5cc(C)cc6nc(OC)cnc56)sc34)O2)cn1 [Example 110, (R)-(2-(2-methoxy-7-methylquinoxalin-5-yl)-7,8-dihydro-[1,4]dioxino[2′,3′:3,4]benzo[1,2-d]thiazol-7-yl)methyl (6-vinylpyridin-3-yl)carbamate]
8.80 | COc1cnc2c(-c3nc4c(C)cc5c(c4s3)OCC(COC(=O)Nc3cnc4c(c3)ncn4C)O5)cc(C)cc2n1 (stereo not drawn) [Example 129, (2-(2-methoxy-7-methylquinoxalin-5-yl)-4-methyl-7,8-dihydro-[1,4]dioxino[2′,3′:3,4]benzo[1,2-d]thiazol-7-yl)methyl (3-methyl-3H-imidazo [4,5-b]pyridin-6-yl)carbamate]
8.85 | COc1cnc2c(-c3nc4c(C)cc5c(c4s3)OCC(COC(=O)Nc3ccc(Cl)nc3)O5)cc(C)cc2n1 (stereo not drawn) [Example 115, (2-(2-methoxy-7-methylquinoxalin-5-yl)-4-methyl-7,8-dihydro-[1,4]dioxino[2′,3′:3,4]benzo [1,2-d]thiazol-7-yl)methyl (6-chloropyridin-3-yl)carbamate]
8.96 | COc1cnc2c(-c3nc4c(C)cc5c(c4s3)OCC(COC(=O)Nc3ccnc(-c4ccccc4)c3)O5)cc(C)cc2n1 (stereo not drawn) [Example 117, (2-(2-methoxy-7-methylquinoxalin-5-yl)-4-methyl-7,8-dihydro-[1,4]dioxino[2′,3′:3,4]benzo[1,2-d]thiazol-7-yl)methyl (2-phenylpyridin-4-yl)carbamate]
9.00 | COc1cnc2c(-c3nc4ccc5c(c4s3)OC[C@H](COC(=O)Nc3ccc(C(=O)N4CCOCC4)cc3)O5)cc(C)cc2n1 [Example 114, (R)-(2-(2-methoxy-7-methylquinoxalin-5-yl)-7,8-dihydro-[1,4]dioxino[2′,3′:3,4]benzo [1,2-d]thiazol-7-yl)methyl (4-(morpholine-4-carbonyl)phenyl)carbamate]
9.05 | COc1cnc2c(-c3nc4c(C)cc5c(c4s3)OCC(COC(=O)Nc3ccc(C)nc3)O5)cc(C)cc2n1 (stereo not drawn) [Example 120, (2-(2-methoxy-7-methylquinoxalin-5-yl)-4-methyl-7,8-dihydro-[1,4]dioxino[2′,3′:3,4]benzo[1,2-d]thiazol-7-yl)methyl (6-methylpyridin-3-yl)carbamate]
